{"source": "patent US9642922B2", "about": "“Caspase-triggered nano-aggregation probes and methods of use” (The Board of Trustees of the Leland Stanford Junior …, priority 2013, dated 2017)", "key": {"[1]": {"system": "apoptotic cells", "assay": "Two-photon laser confocal microscopy of europium analogue in HeLa cells", "assay_type": "cell-based, human", "settings": "same conditions as probe 15 uptake"}, "[2]": {"system": "caspase-3/7 activity", "assay": "CASPASE-GLO 3/7 assay in saline- and 3×DOX-treated tumor lysates", "assay_type": "in vivo, mouse", "settings": "3×DOX 8 mg/kg i.v.", "experimental": "HeLa tumor xenografted mice were treated with saline or 3×DOX (8 mg/Kg). After treatment, the mice were sacrificed, and the tumors were resected and lysed with RIPA buffer (1 g tissue/1 ml buffer). The solution was homogenized for 1 min on ice, three times. The lysed solution was kept on ice for another 30 min, and centrifuged at 14,000×g for 30 min at 4° C. The supernatant was collected, and the protein concentration was measured using Bradford assay with BSA as standard. The caspase-3/7 activity in the lysed solution was measured by CASPASE-GLO® 3/7 assay, and normalized to the protein concentration."}, "[3]": {"system": "caspase-3 activity", "assay": "Caspase-3 level in Dox-treated HeLa cells", "assay_type": "cell-based, human", "settings": "Dox 2 μM, 24 h", "experimental": "HeLa cells were incubated with different concentrations of doxorubicin (0, 1, 2 and 5 μM) and the cell/Tryp-LE solution was centrifuge at 11,750×g for 5 min, the supernatant was removed and 1 mL/g Riba buffer (Sigma) was added. The cells were left for 15 min on ice and homogenized with a sonicator (Bronson Sonifier 150) and the suspension was analyzed for Caspase-3 activity with a CASPASE-GLO® kit from Promega.\nPET tracer 1 was applied to detect caspase-3 in apoptotic cells in vitro. HeLa cells were incubated with doxorubicin (Dox) (2 μM) for 24 h to induce apoptosis. […] Both Dox-treated and non-treated cells were then incubated with 1 for 4 h."}, "[4]": {"system": "caspase-3 level", "assay": "Caspase-3 level in DOX-treated HeLa tumors", "assay_type": "in vivo, mouse", "settings": "0.2 mg DOX intratumoral, 4 days", "experimental": "Mice were injected subcutaneously on the right shoulder with an estimated 1-2 million HeLa cells. The HeLa cells were allowed to establish a tumor xenograft and to grow to the size of 1 cm in diameter. A subset of the mice was treated with intratumoral injections of 0.2 mg (in 20 μL) doxorubicin. Four days later, the animals were killed, the tumors removed and quickly frozen using dry ice. The following day, tumors were cut into small pieces, weighted and 1 mL/g Riba buffer was added. They were kept on ice for 30 min and then homogenized with a sonicator (Bronson Sonifier 150). The lysed tumor solutions were centrifuged at 11,750×g for 15 min at 4° C. The supernatant was analyzed for caspase-3 activity using the CASPASE-GLO® kit (Promega) and for protein concentration using the standard BSA absorption assay."}, "[5]": {"system": "HeLa tumor xenograft", "assay": "Tumor size monitoring in HeLa xenograft chemotherapy model", "assay_type": "in vivo, mouse", "settings": "3×DOX 8 mg/kg i.v.", "experimental": "(§1) To establish tumors in 6-week-old female nu/nu mice, 2×10^6 HeLa cells suspended in 50 μL of a 50% v/v mixture of Matrigel in supplemented DMEM (10% FBS, 1% penstrep) were injected subcutaneously in the shoulders of the mouse. Tumors were grown until a single aspect was 0.7 to 0.9 cm (approximately 10-15 days), and then treatment consisting of 8 mg/kg DOX or saline was initiated. Treatments were administered intravenously once every 4 d for a total of three times. Total mouse body weight and tumor size (width and length by caliper) was measured every other day. Tumor volumes were calculated assuming ellipsoid shape with the formula (l×w^2)/2."}, "[6]": {"system": "apoptotic HeLa cells", "assay": "Epifluorescence microscopy of apoptotic HeLa cells labeled with probes", "assay_type": "cell-based, human", "settings": "microscopy, 2 μM probe", "experimental": "After removal of the medium, the cells were incubated with C-SNAF, L-ctrl, or D-ctrl at 2 μM for 24 h. Some cells were first incubated with caspase inhibitor (Z-VAD-fmk, 50 μM) for 30 min, followed by incubating with 2 μM C-SNAF for 24 h. The cells were carefully washed with PBS (1×) three times, and stained with Hoechst 33342 (2 μM) at 37° C. for 30 min. After rinses with PBS (1×) several times, the medium was replaced and the fluorescence images were acquired with DAPI and Cy5.5 filters. The images were processed using the standard CRi Nuance software, analyzed using Image J software package (NIH), and presented at the same intensity scale for comparison.\nHeLa cells in #1.5 borosilicate 8-well chambered coverslips (Nunc) were either incubated with C-SNAF (2 μM) alone or co-incubated with DOX (1, 2, and 5 μM) and 2 μM C-SNAF, 2 μM C-SNAF together with caspase inhibitor (Z-VAD-fmk, 50 μM), or control probes D-ctrl and L-ctrl at 2 μM for 24 h. Then the medium was removed, the cells were carefully washed with PBS (1×) three times, and stained with nuclear binding probe Hoechst 33342 (2 μM) at 37° C. for 30 min. After several rinses with PBS (1×), the medium was replaced and the fluorescence images were acquired with DAPI and […] filters."}, "[7]": {"system": "subcutaneous HeLa tumors", "assay": "In vivo fluorescence imaging of DOX-treated HeLa tumor-bearing mice", "set-up": "species or system mouse", "experimental": "C-SNAF or either of the control probes (5 nmol) was administered intravenously to tumor-bearing mice and whole animal fluorescence was longitudinally monitored using a Maestro fluorescence imager.\nas §1\nTwo days following the final treatment, 5 nmol probe in saline was injected intravenously and fluorescence imaging began immediately on a Maestro hyperspectral fluorescent imaging system (PerkinElmer, Mass., USA) using a 635±25 nm excitation filter and a 675 nm long-pass emission filter, with images acquired from 670 to 900 nm. Tissue autofluorescence and Cy5.5 fluorescence were deconvolved, and tumor fluorescence intensity was quantified by region of interest measurement using Nuance v.3.0.1.2 software (Perkin Elmer, Mass., USA)."}, "[8]": {"settings": "mouse, in vivo, iv"}, "[9]": {"target": "T1, caspase-3 (Homo sapiens, UniProt P42574)", "T1 sequence (P42574 29-175 limits assumed)": "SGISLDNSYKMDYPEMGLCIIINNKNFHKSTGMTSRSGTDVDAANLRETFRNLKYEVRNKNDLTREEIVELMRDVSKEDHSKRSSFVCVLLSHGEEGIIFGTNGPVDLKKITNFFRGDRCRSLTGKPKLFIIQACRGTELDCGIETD", "T1 sequence (P42574 176-277 limits assumed)": "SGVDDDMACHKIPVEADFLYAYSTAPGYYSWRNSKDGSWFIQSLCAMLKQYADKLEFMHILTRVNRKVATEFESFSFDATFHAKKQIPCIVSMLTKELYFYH", "assay": "HPLC assay of caspase-3-triggered macrocyclization of C-SNAF", "assay_type": "biochemical", "set-up": "purchased Sigma; host or cells: E. coli", "settings": "same conditions as C-SNAF; D-ctrl after 24 h", "experimental": "The progression of caspase-3-triggered macrocyclization of C-SNAF to form C-SNAF-cycl in solution was monitored using high-performance liquid chromatography (HPLC) following incubation of the probe (25 μM) with recombinant human caspase-3 (4.9×10^−[…]).\nCaspase (human, recombinant from E. coli) assays were performed for caspase-3 (4.9×10^−3 U; 7.35×10^−4 mg, Sigma), −7 (18.3 U; 7.35×10^−4 mg, Calbiochem), and −9 (0.3 U; 7.35×10^−4 mg, Calbiochem). All caspase assays were conducted in caspase buffer with 50 mM HEPES, 100 mM NaCl, 1 mM EDTA, 10 mM TCEP, 10% glycerol, and 0.1% CHAPS at pH 7.4. Cathepsin B (human liver; 0.27 U; 7.35×10^−4 mg, Calbiochem) and Legumain (human, recombinant from mouse myeloma cell line; >250 pmol/min/μg; 7.35×10^−4 mg, R&D Systems) were conducted in reaction buffer with 50 mM sodium acetate, 50 mM NaCl, 0.5 mM EDTA and 10 mM TCEP at pH 5.5. C-SNAF was diluted in the respective enzyme reaction buffer (25 μM, 1 mL) and remained at room temperature for 10 min, to which was then added the respective enzymes. Reactions were performed at 37° C., and monitored by HPLC hourly. The percentage conversion of the reaction was calculated based on the percentage of peak area of C-SNAF-cycl in the HPLC trace at 675 nm UV detection, which indicated the efficacy of enzyme cleavage of C-SNAF."}, "[10]": {"system": "STS-induced apoptotic HeLa cells", "assay": "Flow cytometry of STS-induced apoptotic HeLa cells labeled with probes", "assay_type": "cell-based, human", "settings": "2 μM probe, compared with C-SNAF", "experimental": "Approximately 10^5 HeLa cells in 1 mL DMEM medium were seeded onto 12-well plates. […] For the inhibitor blocking experiment, the STS-treated cells were first incubated with the caspase inhibitor Z-VAD-fmk (50 μM, R&D Systems) for 30 min, and then 2 μM C-SNAF was added. All cells incubations were 24 h, followed by staining with FLICA (FAM) after trypsinization. After washing with PBS (1×) three times, the cell pellets were resuspended in 300 μL PBS and applied for flow cytometry analysis using the FITC and Cy5.5 channels. The cell number for each flow cytometry analysis was approximately 5000 to 10000, and the data was processed using FlowJo software."}}, "note": "Numbered stars: 1 amine (or outer) side, 2 acyl side, 3 side chain; on linkers, the order of the positions; unused ones are H or OH. Square brackets hold non-standard residues; d marks the D form. Peptide text beside a SMILES is read from it. * marks the point of attachment. DOTA = O=C(O)CN1CCN(CC(=O)O)CCN(CC(=O)*)CCN(CC(=O)O)CC1; X1 = O=C(C1CSC(c2nc3ccc(N[*:1])cc3s2)=N1)[*:2]; X2 = N#Cc1ccc2cc(OCCCN*)ccc2n1; SEt = CCS*"}
{"smiles": "CCSSCC(NC(=O)C(CC(=O)O)NC(=O)C(NC(=O)C(CCC(=O)O)NC(=O)C(CC(=O)O)NC(C)=O)C(C)C)C(=O)NC(CCCCNC(=O)CN1CCN(CC(=O)[O-])CCN(CC(=O)[O-])CCN(CC(=O)[O-])CC1)C(=O)Nc1ccc2nc(C3=NC(C(=O)NCCCOc4ccc5nc(C#N)ccc5c4)CS3)sc2c1.[Eu+3]", "note": "(stereo not drawn) [1-Eu^3+ (16)] (Ac-DEVDC(SEt)K(DOTA)[X1]-X2; configuration not given here)", "values": [{"measurement": "fluorescent signal in apoptotic cells", "setting": "[1]", "value": "strong fluorescent signal in apoptotic cells"}]}
{"smiles": "COc1cccc2c1C(=O)c1c(O)c3c(c(O)c1C2=O)C[C@@](O)(C(=O)CO)C[C@@H]3O[C@H]1C[C@H](N)[C@H](O)[C@H](C)O1", "note": "[DOX, doxorubicin]", "values": [{"measurement": "increase in caspase-3/7 activity in tumor lysates versus saline", "setting": "[2]", "value": "approximately 2 fold"}, {"measurement": "caspase-3 activity of lysates of treated versus non-treated cells", "setting": "[3]", "value": 9.5, "unit": "fold"}, {"measurement": "increase of caspase-3 level in treated tumors", "setting": "[4]", "value": 1.9, "unit": "fold"}, {"measurement": "tumor growth rate relative to saline", "setting": "[5]", "value": "significant decrease in tumor growth rates"}]}
{"smiles": "CC[N+]1=C(C=CC=CC=C2N(CCCCCC(=O)NCCCCC(NC(=O)C(CSC)NC(=O)C(CC(=O)O)NC(=O)C(NC(=O)C(CCC(=O)O)NC(=O)C(CC(=O)O)NC(C)=O)C(C)C)C(=O)Nc3ccc4nc(C5=NC(C(=O)NCCCOc6ccc7ncccc7c6)CS5)sc4c3)c3ccc4c(S(=O)(=O)O)cc(S(=O)(=O)O)cc4c3C2(C)C)C(C)(C)c2c1ccc1c(S(=O)(=O)O)cc(S(=O)(=O)[O-])cc21", "note": "[L-ctrl]", "values": [{"measurement": "fluorescence of apoptotic cells compared to C-SNAF", "setting": "[6]", "value": "relatively weaker fluorescence"}, {"measurement": "correlation (r) of maximum tumor fluorescence with maximum tumor size change", "setting": "[7]; 3×DOX-treated mice, 1 h after probe", "value": "no significant correlation"}, {"measurement": "average signal enhancement between DOX- and saline-treated tumors", "setting": "[7]; 4 h after probe administration", "value": 0.24, "unit": "%"}, {"measurement": "tumor fluorescence lower than that of C-SNAF", "setting": "[7]; DOX-treated mice, 1 h", "value": 18, "unit": "%"}, {"measurement": "blood half-life", "setting": "[8]", "value": "30 ± 16.8", "unit": "min"}, {"measurement": "products observed after incubation with caspase-3", "setting": "[9]", "value": "only the caspase-3-mediated DEVD-cleavage hydrolysis product"}, {"measurement": "fluorescent intensity of apoptotic cells incubated with control probes", "setting": "[10]", "value": "much lower fluorescent intensity"}]}
